Here are results for 27 compounds from ChEMBL document CHEMBL4393662, “Structural optimization on a virtual screening hit of smoothened receptor” (Eur J Med Chem, 2019).

Active and inactive are the calls of the source. The rule behind the calls is not given here.

Data set [1] concerns the target Protein smoothened (Mus musculus, UniProt P56726). Description: Antagonist activity at Smo receptor in mouse NIH/3T3 cells harboring GRE-Luc assessed as inhibition of SAG-induced Hh signaling pathway preincubated with cells followed by SAG addition measured after 48 hrs by luciferase reporter gene assay. Format: cell-based.
The next data set relates to HEK293. Description: Inhibition of Wnt pathway in HEK293 cells harbouring TCF-luciferase cocultured with LWnt3A cells by Topflash reporter gene assay. Format: cell-based. To be noted: Homo sapiens.
For data set [2], the target named is Protein smoothened (Homo sapiens, UniProt Q99835). Description: Displacement of BODIPY-Cyclopamine from human HA-tagged Smo receptor expressed in human U2OS cells at 1 to 10000 nM incubated for 2 hrs by DAPI staining based fluorescence microscopic method. Format: cell-based.
Chain of Protein smoothened (Homo sapiens, UniProt Q99835) (Q99835 whole entry): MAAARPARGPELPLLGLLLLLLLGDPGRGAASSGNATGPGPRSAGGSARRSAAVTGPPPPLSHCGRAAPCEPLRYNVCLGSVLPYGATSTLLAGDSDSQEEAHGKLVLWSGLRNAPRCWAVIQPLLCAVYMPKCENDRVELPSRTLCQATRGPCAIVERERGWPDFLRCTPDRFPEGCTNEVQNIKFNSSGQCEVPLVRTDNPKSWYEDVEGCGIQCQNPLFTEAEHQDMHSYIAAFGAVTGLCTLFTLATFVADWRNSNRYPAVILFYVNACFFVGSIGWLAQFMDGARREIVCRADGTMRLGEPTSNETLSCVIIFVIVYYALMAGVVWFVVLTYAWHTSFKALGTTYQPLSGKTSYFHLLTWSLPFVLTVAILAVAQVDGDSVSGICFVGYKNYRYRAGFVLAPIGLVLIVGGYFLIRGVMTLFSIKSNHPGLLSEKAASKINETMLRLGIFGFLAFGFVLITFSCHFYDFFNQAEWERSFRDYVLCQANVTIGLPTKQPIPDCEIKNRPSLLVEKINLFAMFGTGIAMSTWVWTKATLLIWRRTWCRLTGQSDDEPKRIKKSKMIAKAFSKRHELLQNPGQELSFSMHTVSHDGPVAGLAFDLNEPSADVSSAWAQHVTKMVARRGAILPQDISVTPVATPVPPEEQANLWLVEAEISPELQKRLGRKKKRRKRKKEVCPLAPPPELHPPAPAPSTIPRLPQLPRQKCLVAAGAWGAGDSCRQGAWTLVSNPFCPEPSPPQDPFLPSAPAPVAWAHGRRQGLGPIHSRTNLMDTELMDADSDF
The target in data set [3] is Voltage-gated inwardly rectifying potassium channel KCNH2 (Homo sapiens, UniProt Q12809). Nature of the data set: Inhibition of human ERG by patch clamp method.
Chain of Voltage-gated inwardly rectifying potassium channel KCNH2 (Q12809 whole entry): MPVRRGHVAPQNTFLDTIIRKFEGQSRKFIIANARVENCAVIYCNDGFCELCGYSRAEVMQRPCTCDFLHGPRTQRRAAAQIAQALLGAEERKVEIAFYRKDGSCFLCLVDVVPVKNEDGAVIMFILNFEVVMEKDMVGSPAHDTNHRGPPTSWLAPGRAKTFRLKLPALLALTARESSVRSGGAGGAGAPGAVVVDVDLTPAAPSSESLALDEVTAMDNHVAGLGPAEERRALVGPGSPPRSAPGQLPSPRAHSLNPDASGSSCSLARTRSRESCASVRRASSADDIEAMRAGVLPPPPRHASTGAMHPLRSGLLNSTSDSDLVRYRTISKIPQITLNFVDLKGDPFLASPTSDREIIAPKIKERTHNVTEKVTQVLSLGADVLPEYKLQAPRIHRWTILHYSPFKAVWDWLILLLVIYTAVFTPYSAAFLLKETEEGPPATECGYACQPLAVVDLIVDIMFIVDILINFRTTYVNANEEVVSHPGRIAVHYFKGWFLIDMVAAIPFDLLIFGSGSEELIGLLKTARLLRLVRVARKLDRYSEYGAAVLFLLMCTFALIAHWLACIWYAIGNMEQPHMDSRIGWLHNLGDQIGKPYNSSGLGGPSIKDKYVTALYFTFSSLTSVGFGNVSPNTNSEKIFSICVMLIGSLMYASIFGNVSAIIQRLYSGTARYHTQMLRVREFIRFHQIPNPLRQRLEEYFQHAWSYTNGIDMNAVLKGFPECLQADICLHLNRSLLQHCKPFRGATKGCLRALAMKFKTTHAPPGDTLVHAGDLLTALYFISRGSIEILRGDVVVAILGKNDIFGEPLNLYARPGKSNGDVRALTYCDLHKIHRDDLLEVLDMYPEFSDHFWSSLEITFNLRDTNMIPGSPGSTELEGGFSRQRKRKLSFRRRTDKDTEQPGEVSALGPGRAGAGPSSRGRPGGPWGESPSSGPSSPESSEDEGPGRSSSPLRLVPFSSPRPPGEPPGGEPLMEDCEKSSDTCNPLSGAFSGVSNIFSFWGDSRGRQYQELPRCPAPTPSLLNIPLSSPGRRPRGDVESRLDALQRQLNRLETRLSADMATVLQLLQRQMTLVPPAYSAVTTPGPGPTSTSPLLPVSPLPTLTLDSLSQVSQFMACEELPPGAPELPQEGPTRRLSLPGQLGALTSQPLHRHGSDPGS
The next data set has as its target CYP2D6 (Homo sapiens, UniProt P10635). Nature of the data set: Inhibition of CYP2D6 (unknown origin) at 10 uM relative to control. In kind it is ADME.
A further data set concerns the target CYP3A4 (Homo sapiens, UniProt P08684). Description: Inhibition of CYP3A4 (unknown origin) at 10 uM relative to control. Format: ADME.
A further data set concerns the target T1, CYP1A2 (Homo sapiens, UniProt P05177).
T1 sequence (P05177 whole entry): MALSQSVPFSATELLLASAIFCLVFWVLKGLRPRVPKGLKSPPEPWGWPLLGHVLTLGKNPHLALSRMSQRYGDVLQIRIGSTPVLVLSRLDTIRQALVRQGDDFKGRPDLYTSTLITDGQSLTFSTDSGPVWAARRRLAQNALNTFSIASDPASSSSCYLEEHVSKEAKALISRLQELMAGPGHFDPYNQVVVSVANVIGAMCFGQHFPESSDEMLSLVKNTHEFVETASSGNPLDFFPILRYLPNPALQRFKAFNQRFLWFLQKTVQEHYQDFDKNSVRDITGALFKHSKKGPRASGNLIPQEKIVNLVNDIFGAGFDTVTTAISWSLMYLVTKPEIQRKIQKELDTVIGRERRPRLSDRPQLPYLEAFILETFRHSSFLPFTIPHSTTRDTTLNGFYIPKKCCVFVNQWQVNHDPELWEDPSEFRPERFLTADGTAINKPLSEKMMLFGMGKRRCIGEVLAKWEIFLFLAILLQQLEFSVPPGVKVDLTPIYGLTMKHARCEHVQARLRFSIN
Nature of the data set: Inhibition of CYP1A2 (unknown origin) at 10 uM relative to control. Format: ADME.

The target in a further data set is CYP2C9 (Homo sapiens, UniProt P11712). Nature of the data set: Inhibition of CYP2C9 (unknown origin) at 10 uM relative to control. Format: ADME.
Chain of CYP2C9 (P11712 whole entry): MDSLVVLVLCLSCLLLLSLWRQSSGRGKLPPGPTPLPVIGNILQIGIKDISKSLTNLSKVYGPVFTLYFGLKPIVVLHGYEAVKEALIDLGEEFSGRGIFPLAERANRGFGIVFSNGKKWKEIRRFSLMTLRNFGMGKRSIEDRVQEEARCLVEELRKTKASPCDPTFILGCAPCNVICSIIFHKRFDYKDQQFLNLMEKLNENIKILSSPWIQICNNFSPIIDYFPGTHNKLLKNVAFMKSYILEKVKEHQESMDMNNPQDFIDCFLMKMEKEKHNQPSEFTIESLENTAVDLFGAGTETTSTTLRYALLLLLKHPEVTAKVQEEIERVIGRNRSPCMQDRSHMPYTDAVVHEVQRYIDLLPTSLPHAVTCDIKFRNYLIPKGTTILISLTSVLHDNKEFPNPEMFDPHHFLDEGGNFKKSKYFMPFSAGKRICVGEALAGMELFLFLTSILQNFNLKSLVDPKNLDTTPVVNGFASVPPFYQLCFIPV
The nature of data set [4]: Apparent permeability from apical to basolateral side in human Caco2 cells. Format: ADME, cell-based. As to conditions: Caco-2.
Data set [5] can be described thus: Efflux ratio of apparent permeability in human Caco2 cells. To be noted: Caco-2. Format: ADME, cell-based.
The nature of data set [6]: Intrinsic clearance in human liver microsomes at 1 uM. Format: ADME, Microsome. As to conditions: read-out: CLH.
The target in another data set is CYP2C19 (Homo sapiens, UniProt P33261). Description: Inhibition of CYP2C19 (unknown origin) at 10 uM relative to control. Format: ADME.
Chain of CYP2C19 (P33261 whole entry): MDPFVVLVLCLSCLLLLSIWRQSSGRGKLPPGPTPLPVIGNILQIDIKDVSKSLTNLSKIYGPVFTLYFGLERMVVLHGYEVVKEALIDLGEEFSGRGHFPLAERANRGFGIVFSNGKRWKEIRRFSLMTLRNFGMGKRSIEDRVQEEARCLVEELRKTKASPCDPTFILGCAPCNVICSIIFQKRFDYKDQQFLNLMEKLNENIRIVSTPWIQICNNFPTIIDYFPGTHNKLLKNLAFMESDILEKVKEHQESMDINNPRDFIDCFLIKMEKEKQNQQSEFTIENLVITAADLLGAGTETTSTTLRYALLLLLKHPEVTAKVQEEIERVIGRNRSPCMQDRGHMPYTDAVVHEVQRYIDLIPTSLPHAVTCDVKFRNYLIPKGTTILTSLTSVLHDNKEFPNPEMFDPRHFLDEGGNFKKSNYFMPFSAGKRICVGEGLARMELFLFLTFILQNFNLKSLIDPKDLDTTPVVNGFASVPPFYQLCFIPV
A further data set relates to Medulloblastoma cell. Description: Antiproliferative activity against mouse Ptch+/- medulloblastoma cells assessed as inhibition of cell growth incubated for 36 hrs by CCK-8 assay. In kind it is functional, cell-based.
In another data set the test system is U-251. Description: Cytotoxicity activity human U251 cells assessed as reduction of cell viability upto 1000 nM incubated for 48 hrs by CCK-8 assay. Format: cell-based. To be noted: u-251, 48 h.
In data set [7] the target is Protein smoothened (Mus musculus) (UniProt P56726). Description: Antagonist activity at Smo receptor in mouse NIH/3T3 cells assessed as inhibition of Gli1 mRNA expression incubated for 48 hrs by qRT-PCR analysis. In kind it is cell-based.
Chain of Protein smoothened (Mus musculus) (P56726 whole entry): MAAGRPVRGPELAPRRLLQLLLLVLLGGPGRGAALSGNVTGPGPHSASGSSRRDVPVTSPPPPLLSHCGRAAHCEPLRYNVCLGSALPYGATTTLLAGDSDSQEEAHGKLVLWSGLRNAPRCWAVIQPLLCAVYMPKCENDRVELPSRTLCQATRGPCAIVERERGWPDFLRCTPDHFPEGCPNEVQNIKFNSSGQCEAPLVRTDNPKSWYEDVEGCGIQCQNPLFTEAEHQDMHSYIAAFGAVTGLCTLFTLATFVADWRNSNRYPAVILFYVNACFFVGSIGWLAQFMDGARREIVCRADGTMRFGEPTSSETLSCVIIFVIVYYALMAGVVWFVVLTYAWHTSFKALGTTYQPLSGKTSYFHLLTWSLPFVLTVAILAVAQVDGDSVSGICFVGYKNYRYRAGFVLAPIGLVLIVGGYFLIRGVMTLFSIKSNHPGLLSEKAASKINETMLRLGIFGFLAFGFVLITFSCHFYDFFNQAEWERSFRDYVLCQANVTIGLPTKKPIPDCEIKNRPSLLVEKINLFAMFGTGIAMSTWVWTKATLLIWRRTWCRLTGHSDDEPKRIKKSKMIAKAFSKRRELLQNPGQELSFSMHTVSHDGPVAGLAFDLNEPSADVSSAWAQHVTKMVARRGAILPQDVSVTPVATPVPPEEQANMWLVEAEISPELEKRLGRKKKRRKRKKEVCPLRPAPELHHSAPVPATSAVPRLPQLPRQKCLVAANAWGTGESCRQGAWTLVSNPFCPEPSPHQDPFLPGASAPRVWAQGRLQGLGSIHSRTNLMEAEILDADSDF
Data set [8] has as its system Protein smoothened (Homo sapiens), Q99835 [D473H]. Nature of the data set: Antagonist activity at Smo D473H mutant receptor in mouse NIH/3T3 cells assessed as inhibition of Gli1 mRNA expression incubated for 48 hrs by qRT-PCR analysis. Format: cell-based.
Data set [9] in a line: Intrinsic clearance in rat liver microsomes at 1 uM. In kind it is ADME, Microsome. To be noted: read-out: CLH.
Data set [10] in a line: Half life in human liver microsomes at 1 uM. Format: ADME, Microsome.
Data set [11] is described as follows: Half life in rat liver microsomes at 1 uM. In kind it is ADME, Microsome.

Chain of Protein smoothened (Mus musculus, UniProt P56726) (P56726 whole entry): as above
Chain of Protein smoothened (Homo sapiens), Q99835 [D473H] (Q99835 whole entry D473H): as the sequence (Q99835 whole entry) above, with D473H counted along it
Chain of CYP3A4 (P08684 whole entry): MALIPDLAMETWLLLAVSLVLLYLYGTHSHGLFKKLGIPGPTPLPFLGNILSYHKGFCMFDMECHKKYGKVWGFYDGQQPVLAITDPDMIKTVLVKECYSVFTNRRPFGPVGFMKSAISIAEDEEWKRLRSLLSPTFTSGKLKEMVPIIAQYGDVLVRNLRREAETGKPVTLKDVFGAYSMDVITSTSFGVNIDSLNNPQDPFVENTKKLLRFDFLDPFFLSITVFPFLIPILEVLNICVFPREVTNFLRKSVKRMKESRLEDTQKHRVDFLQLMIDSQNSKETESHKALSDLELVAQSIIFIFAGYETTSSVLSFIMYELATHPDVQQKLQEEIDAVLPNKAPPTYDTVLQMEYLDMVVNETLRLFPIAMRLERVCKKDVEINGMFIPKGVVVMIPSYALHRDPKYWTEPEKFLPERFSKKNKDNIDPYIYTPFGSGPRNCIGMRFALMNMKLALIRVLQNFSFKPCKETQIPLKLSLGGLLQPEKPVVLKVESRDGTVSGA
Chain of CYP2D6 (P10635 whole entry): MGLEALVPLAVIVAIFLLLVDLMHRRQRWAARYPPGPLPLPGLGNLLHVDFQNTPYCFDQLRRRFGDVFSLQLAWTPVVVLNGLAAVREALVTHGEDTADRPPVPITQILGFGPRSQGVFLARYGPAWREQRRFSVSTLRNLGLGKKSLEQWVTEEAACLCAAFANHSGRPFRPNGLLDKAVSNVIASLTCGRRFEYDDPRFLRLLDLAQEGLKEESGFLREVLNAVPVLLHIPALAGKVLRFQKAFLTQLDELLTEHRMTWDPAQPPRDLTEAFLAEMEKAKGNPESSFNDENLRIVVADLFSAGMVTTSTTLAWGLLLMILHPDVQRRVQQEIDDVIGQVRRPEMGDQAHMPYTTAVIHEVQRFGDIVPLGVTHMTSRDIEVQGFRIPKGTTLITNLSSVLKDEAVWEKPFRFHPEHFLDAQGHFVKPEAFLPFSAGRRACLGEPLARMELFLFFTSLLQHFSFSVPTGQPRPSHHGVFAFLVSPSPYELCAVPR

As for `Cc1ccc(NCc2ccnn2-c2nnc(N3CCC(C(=O)Nc4cccnc4C)CC3)s2)nc1`, the IC50 at Protein smoothened [1] was 460 nM. In addition, the inhibition entry in the data set with HEK293 is “Active”.
As to `CN(C(=O)c1ccc(F)cc1C(F)(F)F)C1CCN(c2nnc(-c3ccnn3C)s2)CC1`, on Protein smoothened [1], the IC50 is > 10000 nM.
On to `CC1CCCCC1NC(=O)C1CCN(c2nnc(-n3nccc3CO)s2)CC1` (configuration not stated), for which the IC50 at Protein smoothened [1] is > 10000 nM.
On to `Cc1ccc(OCc2ccnn2-c2nnc(N3CCC(C(=O)NC4CCCCC4C)CC3)s2)nc1` (configuration not stated), for which the IC50 on Protein smoothened [1] was 42 nM. For the same compound, the inhibition entry with HEK293 is “Active”.
On the same counts, the results for `Cc1ccc(NCc2ccnn2-c2nnc(N3CCC(C(=O)NC4CCCCC4C)CC3)s2)cn1` (configuration not stated) are 51 nM and “Active”.
In the same order, the values of `Cc1ccc(NCc2ccnn2-c2nnc(N3CCC(C(=O)Nc4ccncc4C)CC3)s2)nc1` are 220 nM and “Active”.
`Cc1ccc(NCc2c(-c3nnc(N4CCC(C(=O)NC5CCCCC5C)CC4)s3)cnn2C)nc1` (configuration not stated): the 50% inhibitory concentration (IC50) at Protein smoothened [1] was 1800 nM. The inhibition result in the data set with HEK293 was “Active”.
Consider `Cc1cnc(NCc2ccnn2-c2nnc(N3CCC(C(=O)NC4CCCCC4C)CC3)s2)cn1` (configuration not stated), for which, at Protein smoothened [1], the IC50 is 410 nM. Besides, the inhibition entry with HEK293 was “Active”.
In the same order, the values of `CC1CCCCC1NC(=O)C1CCN(c2nnc(-n3nccc3CNc3ccccn3)s2)CC1` (configuration not stated) are 18 nM and “Active”.
`Cc1ccc(NCc2ccnn2-c2nnc(N3CCC(C(=O)NC4CCCCC4C)CC3)s2)nc1` (racemic): the results for the IC50 on Protein smoothened [1] and at Protein smoothened [2] were 7.1 nM and 3.9 nM, respectively. In the data set with HEK293, the inhibition entry was “Active”.
Regarding `Cc1ccc(NCc2ccnn2-c2nnc(N3CCC(C(=O)Nc4cnccc4C)CC3)s2)nc1`, the IC50 at Protein smoothened [1] was found to be 550 nM. In addition, the inhibition entry with HEK293 was “Active”.
As to `Cc1ccc(NCc2ccccc2-c2nnc(N3CCC(C(=O)NC4CCCCC4C)CC3)s2)nc1` (configuration not stated), the IC50 on Protein smoothened [1] was 290 nM. Moreover, the inhibition result with HEK293 was “Active”.
On the same counts, the results for `CC(O)c1ccnn1-c1nnc(N2CCC(C(=O)NC3CCCCC3C)CC2)s1` (configuration not stated) are 3700 nM and “Active”.
On the same counts, the results for `Cc1ccc(NCc2ccnn2-c2nnc(N3CCC(C(=O)NC4CCCCC4C)CC3)s2)nn1` (configuration not stated) are 81 nM and “Active”.
With `CC1CCCCC1NC(=O)C1CCN(c2nnc(-c3ccnn3C)s2)CC1` (configuration not stated), the IC50 at Protein smoothened [1] was > 10000 nM.
Same read-out and setting: the value for `CC1CCCCC1NC(=O)C1CCN(c2nnc(-n3cccn3)s2)CC1` (configuration not stated) was > 10000 nM.
Turning to `Cc1ccc(NCc2ccnn2-c2nnc(N3CCC(C(=O)N[C@@H]4CCCC[C@@H]4C)CC3)s2)nc1`, at Protein smoothened [1], the half-inhibitory concentration (IC50) worked out at 8.4 nM. Further, in the data set on HEK293, the inhibition result is “Active”.
On the same counts, the results for `Cc1cnc(NCc2ccnn2-c2nnc(N3CCC(C(=O)NC4CCCCC4C)CC3)s2)nc1` (configuration not stated) are 180 nM and “Active”.
In the same order, the values of `Cc1ccc(CCc2ccnn2-c2nnc(N3CCC(C(=O)NC4CCCCC4C)CC3)s2)nc1` (configuration not stated) are 57 nM and “Active”.
`Cc1ccc(NCc2ccnn2-c2nnc(N3CCC(C(=O)NC4CCCCC4C)CC3)s2)cc1` (configuration not stated): the IC50 at Protein smoothened [1] amounted to 46 nM; on Protein smoothened [2], 18 nM. In the data set with HEK293, the inhibition entry is “Active”.
Regarding `C[C@@H]1CN(c2nnc(Cc3ccccc3)s2)CCN1c1cnc(C(C)(C)O)cn1`, the IC50 at Protein smoothened [1] is > 10000 nM.
Turning to `Cc1ccc(NCc2ccnn2-c2nnc(N3CCC(C(=O)N[C@H]4CCCC[C@H]4C)CC3)s2)nc1`, the IC50 in data set [3] is > 30 µM; on Protein smoothened [1], 7.1 nM; in the data set on Medulloblastoma cell, 0.5 nM. For the same compound, the inhibition at 10 µM against CYP2D6 is 59%; on CYP3A4, 72%; at CYP1A2, -4%; on CYP2C9, 26%; on CYP2C19 it was 7.1%. Further, in [4], the Papp A→B stood at 23 ×10⁻⁶ cm/s. The efflux ratio in data set [5] is 1.03. The CLint scaled at 1 µM in data set [6] was found to be 2700 mL/min/kg; in data set [9] it was 2000 mL/min/kg. The Activity result with U-251 is listed as “Non-Toxic”. Besides, the inhibition entry (in data set [7]; in data set [8]; with HEK293) was “Active” in each case. Besides, the half-life at 1 µM in [10] is 0.64 min; in [11], 1.3 min.
Regarding `Cc1ccc(NCc2ccnn2-c2nnc(N3CCC(C(=O)Nc4ncccc4C)CC3)s2)nc1`, at Protein smoothened [1], the IC50 turned out to be 280 nM. For the same compound, the inhibition result in the data set on HEK293 was “Active”.
For `Cc1cc(C)n(-c2nnc(N3CCC(C(=O)NC4CCCCC4C)CC3)s2)n1` (configuration not stated), at Protein smoothened [1], the half-inhibitory concentration (IC50) was > 10000 nM.
As for `Cc1ccc(NCc2ccnn2-c2nnc(N3CCC(C(=O)Nc4ccccc4C)CC3)s2)nc1`, the IC50 on Protein smoothened [1] turned out to be 140 nM. Also, in the data set with HEK293, the inhibition result is “Active”.
With `CS(=O)(=O)c1ccc(C(=O)Nc2ccc(Cl)c(-c3ccccn3)c2)c(Cl)c1` [VISMODEGIB], the IC50 with Medulloblastoma cell worked out at 4.7 nM. In the data set with U-251, the Activity result was “Non-Toxic”. The inhibition entry in data set [8] is “inactive”.
Regarding `CC1CCCCC1NC(=O)C1CCN(c2nnc(-n3nccc3CNc3cccnc3)s2)CC1` (configuration not stated), the IC50 on Protein smoothened [1] stood at 69 nM. The inhibition entry with HEK293 was “Active”.
